From patent US10966976B2, “Methods for inducing an immune response by inhibition of nonsense mediated decay” (MOONSHOT PHARMA LLC, priority 2015, dated 2021) come the findings set out here.

One experiment has as its system MC38 tumor cells. The experiment can be described thus: MC38 subcutaneous syngeneic tumor model, tumor volume by caliper. Format: in vivo, C57BL/6 mice. The arrangement: Percent inhibition of tumor volume: concentration or dose not given beside the values. Particulars: for Percent inhibition of tumor volume: vs vehicle group, negative values indicate an increase in tumor volume. The protocol:
This Example evaluated the effectiveness of an NMDI alone and in combination with one or more immunotherapy agents for the treatment of tumor-bearing C57BL/6 mice.
Animals: Female 6-8 week old (estimated age at inoculation) C57BL/6 mice were obtained from Shanghai Lingchang Bio-Technology Co. Ltd (LC, Shanghai, China). The animals were housed at 20-26° C. with a 12 hours light and 12 hours darkness cycle.
Cell Culture: MC38 tumor cells were maintained in vitro as a monolayer culture in DMEM medium supplemented with 10% fetal bovine serum at 37° C. in an atmosphere of 5% CO2 in air. The tumor cells were routinely subcultured twice weekly. Cells in an exponential growth phase were harvested and counted for tumor inoculation.
Therapeutic compounds: Anti-PD-1 and anti-CTLA-4 antibodies were obtained from BioXCell as was an anti-CD8 antibody. The nonsense mediated decay inhibitor NMDI14 (4,5-Dimethyl-2-[[2-(1,2,3,4-tetrahydro-6,7-dimethyl-3-oxo-2-quinoxalinyl)acetyl]amino]-3-thiophenecarboxylic acid ethyl ester, Ethyl 2-{[(6,7-dimethyl-3-oxo-1,2,3,4-tetrahydro-2-quinoxalinyl)acetyl]amino}-4,5-dimethyl-3-thiophenecarboxylate) was obtained from ChemBridge Corp. (La Jolla, Calif.).
Tumor Inoculation: Each mouse was inoculated subcutaneously at the right lower flank region with MC38 tumor cells (1×10^6) in 0.1 mL of PBS for tumor development. The treatments were started when the mean tumor size reaches approximately 50 mm^3. The date of tumor cell inoculation was denoted as day 0.
Group assignment: Before grouping and treatment, all animals were weighed and the tumor volumes measured using a caliper. Tumor volume was used as numeric parameter to randomize selected animals into specified groups in order to minimize systematic error. The grouping was performed by using StudyDirector™ software (Studylog Systems, Inc. CA, USA). One optimal randomization design (generated by Matched distribution) showing minimal group to group variation in tumor volume was selected for group allocation.
After tumor cell inoculation, the animals were checked daily for morbidity and mortality as well as any effects of tumor growth and treatments on normal behavior such as mobility, visual estimation of food and water consumption, body weight gain/loss, eye/hair matting and any other abnormal effect. Tumor volumes were measured twice weekly at least in two dimensions using a caliper, and the volume expressed in mm^3 using the formula: V=0.5 a×b^2 where a and b are the long and short diameters of the tumor, respectively.

Experiment [1] concerns CD3+ immune cells infiltrating tumor tissue. The experiment can be described thus: Immunohistochemistry of sectioned tumor tissue, immune cell infiltration. Format: in vivo, C57BL/6 mice. Particulars: FFPE tumor sections; FIG. 4. The protocol: Immunohistochemistry (IHC): Formalin-fixed paraffin-embedded (FFPE) tissue from tumor samples were sectioned to 4 urn. Antigen retrieval (AR) was conducted at 100° C., in EDTA buffer, at pH 9.0 for 20 min. Primary antibody (diluted with validated concentration), RT 60 min+ secondary antibody (ready-to-use), RT 60 min+Bond Polymer Refine Detection.

Turning to `CCOC(=O)c1c(NC(=O)CC2Nc3cc(C)c(C)cc3NC2=O)sc(C)c1C` (stereo not drawn) [NMDI14, 4,5-Dimethyl-2-[[2-(1,2,3,4-tetrahydro-6,7-dimethyl-3-oxo-2-quinoxalinyl)acetyl]amino]-3-thiophenecarboxylic acid ethyl ester], the “Percent inhibition of tumor volume” value in the experiment on MC38 tumor cells (Day 9) is −0.11%; with MC38 tumor cells (Day 12) it was 14.08%; in the experiment with MC38 tumor cells (Day 15) it was −4.42%; in the experiment on MC38 tumor cells (Day 18) it was 6.19%; with MC38 tumor cells (Day 22) it was 15.14%; in the experiment on MC38 tumor cells (Day 25), 19.44%. The “Percent inhibition of tumor volume” value in the experiment with MC38 tumor cells (Day 29) was found to be 20.58%; in the experiment on MC38 tumor cells (Day 32) it was 21.74%. Moreover, the Mean tumor volume came out at 52.02 mm^3 in the experiment with MC38 tumor cells (Day 9 after inoculation, MC38 tumor-bearing C57BL/6 mice, i.p., NMDI14 20 mg/kg QDx3 weeks, antibodies 10 mg/kg (anti-CD8 200 ug/mouse) BIW x 3 weeks, n=8); 72.22 mm^3 in the experiment on MC38 tumor cells (Day 12, same model and dosing (Table 2)); 135.90 mm^3 with MC38 tumor cells (Day 15, same model and dosing (Table 2)); 270.73 mm^3 with MC38 tumor cells (Day 18, same model and dosing (Table 2)); 405.71 mm^3 in the experiment with MC38 tumor cells (Day 22, same model and dosing (Table 2)); 644.91 mm^3 with MC38 tumor cells (Day 25, same model and dosing (Table 2)). Moreover, the Mean tumor volume in the experiment on MC38 tumor cells (Day 29, same model and dosing (Table 2)) came to 999.58 mm^3; in the experiment with MC38 tumor cells (Day 32, same model and dosing (Table 2)), 1395.65 mm^3. In addition, in the experiment on MC38 tumor cells (MC38 tumor-bearing C57BL/6 mice, Table 6, FIG. 1-3), the “Tumor inhibition (in words)” value is on record as “tumor inhibition-promoting properties”. For the same compound, in experiment [1], the “CD3+ immune cell infiltration of tumor tissue (IHC, in words)” value was “significant numbers of CD3+ immune cells infiltrating tumor tissue”.
